Where a SMILES comes first, the peptide text is derived from it. Bridges are numbered along the chain shown (N, C = ends).
Assay: Solubility of the peptide in the phosphate buffer solution used for immobilization
Format: physicochemical
Settings: phosphate buffer solution (0.02 mol/liter) of pH 7.4
Description: (a) The immobilization procedure of Example 2(a) was repeated, except that 20 mg of the peptide obtained in Synthesizing Example 18 was used in place of 20 mg of the peptide obtained in Synthesizing Example 2.

## CC(C)C[C@H](NC(=O)[C@H](Cc1ccc(O)cc1)NC(=O)[C@@H]1CCCN1C(=O)[C@@H](NC(=O)[C@H](CC(=O)O)NC(=O)[C@@H]1CCCN1C(=O)[C@@H]1CSSC[C@H](NC(=O)[C@@H](NC(=O)[C@H](Cc2ccc(O)cc2)NC(=O)[C@H](Cc2ccc(O)cc2)NC(=O)[C@@H](NC(=O)[C@H](Cc2c[nH]c3ccccc23)NC(=O)[C@H](Cc2c[nH]cn2)NC(=O)[C@H](CCCCN)NC(=O)[C@H](Cc2c[nH]c3ccccc23)NC(=O)CNC(=O)[C@H](CC(C)C)NC(=O)[C@@H](N)CC(C)C)C(C)C)[C@@H](C)O)C(=O)N1)[C@@H](C)O)C(=O)N[C@@H](CC(=O)O)C(=O)O [Synthesizing Example 18] (H-LLGWKHWVYYTCCPDTPYLD-OH; disulfide 12-13)
  solubility in the phosphate buffer solution: low solubility
